Experimental data published in ChEMBL document CHEMBL1201862, “PubChem BioAssay data set” (2004).
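How tested: cells in 96-well plates exposed to compound for 48 hours at five concentrations. Abbreviation: GI50, concentration required for 50% inhibition of growth.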 Calls of active or inactive are those of the source. No stated cut-off is given here; in the data, active = GI50 up to about 1.1 µM and inactive = higher.

Key:
Experiment in all cases: DTP human tumour cell line panel, 48 h
UACC-62 = system: UACC-62
M14 = system: M14
KM12 = system: KM12
NCI-H23 = system: NCI-H23
HOP-62 = system: HOP-62
Malme-3M = system: Malme-3M
LOX IMVI = system: LOX IMVI
CCRF-CEM = system: CCRF-CEM
SN12C = system: SN12C
SNB-19 = system: SNB-19
NCI-H522 = system: NCI-H522
ACHN = system: ACHN
OVCAR-3 = system: OVCAR-3
SF-539 = system: SF-539
EKVX = system: EKVX
K562 = system: K562
SW-620 = system: SW-620
SK-MEL-5 = system: SK-MEL-5
HCT-15 = system: HCT-15

SMILES	GI50 (UACC-62)	GI50 (M14)	GI50 (KM12)	GI50 (NCI-H23)	GI50 (HOP-62)	GI50 (Malme-3M)	GI50 (LOX IMVI)	GI50 (CCRF-CEM)	GI50 (SN12C)	GI50 (SNB-19)	GI50 (NCI-H522)	GI50 (ACHN)	GI50 (OVCAR-3)	GI50 (SF-539)	GI50 (EKVX)	GI50 (K562)	GI50 (SW-620)	GI50 (SK-MEL-5)	GI50 (HCT-15) [µM]
CC12CC(=O)OC(Cc3ccccc31)O2 (stereo not given)	> 100 µM (inactive)	> 100 µM (inactive)	> 100 µM (inactive)	> 100 µM (inactive)	> 100 µM (inactive)	> 100 µM (inactive)	> 100 µM (inactive)	> 100 µM (inactive)	> 100 µM (inactive)	> 100 µM (inactive)	> 100 µM (inactive)	> 100 µM (inactive)	> 100 µM (inactive)	> 100 µM (inactive)	> 100 µM (inactive)	> 100 µM (inactive)	> 100 µM (inactive)	–	–
Nc1nc(S)nc(C(=O)Nc2ccc(Cl)c(Cl)c2)c1-c1ccc(Cl)cc1	> 100 µM (inactive)	87.1 µM (inactive)	> 100 µM (inactive)	> 100 µM (inactive)	> 100 µM (inactive)	> 100 µM (inactive)	> 100 µM (inactive)	> 100 µM (inactive)	> 100 µM (inactive)	> 100 µM (inactive)	> 100 µM (inactive)	> 100 µM (inactive)	> 100 µM (inactive)	> 100 µM (inactive)	> 100 µM (inactive)	90.8 µM (inactive)	> 100 µM (inactive)	> 100 µM (inactive)	> 100
CS(=O)(=O)OCCN1CCN(C(=O)c2cccc3c(Nc4ccc(S(N)(=O)=O)cc4)c4ccccc4nc23)CC1	> 100 µM (inactive)	> 100 µM (inactive)	> 100 µM (inactive)	> 100 µM (inactive)	> 100 µM (inactive)	> 100 µM (inactive)	> 40.6 µM (inactive)	> 44.1 µM (inactive)	> 100 µM (inactive)	> 49.8 µM (inactive)	> 100 µM (inactive)	> 100 µM (inactive)	> 100 µM (inactive)	> 100 µM (inactive)	> 100 µM (inactive)	> 51.5 µM (inactive)	> 39.3 µM (inactive)	> 100 µM (inactive)	> 42.9
C(/COc1cccnc1)=N\NC1=NCCN1	> 100 µM (inactive)	> 100 µM (inactive)	> 100 µM (inactive)	> 100 µM (inactive)	> 100 µM (inactive)	> 100 µM (inactive)	> 100 µM (inactive)	> 100 µM (inactive)	> 100 µM (inactive)	> 100 µM (inactive)	> 100 µM (inactive)	> 100 µM (inactive)	> 100 µM (inactive)	> 100 µM (inactive)	> 100 µM (inactive)	> 100 µM (inactive)	> 100 µM (inactive)	> 100 µM (inactive)	> 100
C/C(=C\CC[C@]1(C)OC(C)(C)OC1CC/C(C)=C/CO[Si](c1ccccc1)(c1ccccc1)C(C)(C)C)CC/C=C/CO[Si](C)(C)C(C)(C)C (stereo not given in full)	> 100 µM (inactive)	> 100 µM (inactive)	> 100 µM (inactive)	> 100 µM (inactive)	> 100 µM (inactive)	> 100 µM (inactive)	> 100 µM (inactive)	> 100 µM (inactive)	> 100 µM (inactive)	> 100 µM (inactive)	> 100 µM (inactive)	> 100 µM (inactive)	74.5 µM (inactive)	> 100 µM (inactive)	> 100 µM (inactive)	> 100 µM (inactive)	> 100 µM (inactive)	> 100 µM (inactive)	> 100
CC(=O)OCCc1cccnc1/C=N/O	> 100 µM (inactive)	> 100 µM (inactive)	> 100 µM (inactive)	> 100 µM (inactive)	> 100 µM (inactive)	> 100 µM (inactive)	> 100 µM (inactive)	> 100 µM (inactive)	> 100 µM (inactive)	> 100 µM (inactive)	> 100 µM (inactive)	> 100 µM (inactive)	> 100 µM (inactive)	> 100 µM (inactive)	> 100 µM (inactive)	> 100 µM (inactive)	> 100 µM (inactive)	> 100 µM (inactive)	> 100
O=C(O)CC1CC=C[C@H]2c3cc4c(cc3C(=O)NC12)OCO4 (stereo not given in full)	> 75 µM (inactive)	> 75 µM (inactive)	> 75 µM (inactive)	> 75 µM (inactive)	> 75 µM (inactive)	> 75 µM (inactive)	> 75 µM (inactive)	> 75 µM (inactive)	> 75 µM (inactive)	> 75 µM (inactive)	> 75 µM (inactive)	> 75 µM (inactive)	> 75 µM (inactive)	> 75 µM (inactive)	> 75 µM (inactive)	> 75 µM (inactive)	> 75 µM (inactive)	–	> 75
